The record followed here is paper doi:10.1101/158956v2 (biorxiv, 2017).

What is called Ki is a dissociation constant, usually derived from enzyme kinetics or from competition with a known ligand. Lower therefore signals tighter binding. One may read the Km as the substrate concentration at which the rate is half of its maximum.

For data set [1], the target named is T1, PfFHΔ40 (PfFΔ40) (Plasmodium falciparum, UniProt Q8I2N6).
T1 sequence (Q8I2N6 41-681): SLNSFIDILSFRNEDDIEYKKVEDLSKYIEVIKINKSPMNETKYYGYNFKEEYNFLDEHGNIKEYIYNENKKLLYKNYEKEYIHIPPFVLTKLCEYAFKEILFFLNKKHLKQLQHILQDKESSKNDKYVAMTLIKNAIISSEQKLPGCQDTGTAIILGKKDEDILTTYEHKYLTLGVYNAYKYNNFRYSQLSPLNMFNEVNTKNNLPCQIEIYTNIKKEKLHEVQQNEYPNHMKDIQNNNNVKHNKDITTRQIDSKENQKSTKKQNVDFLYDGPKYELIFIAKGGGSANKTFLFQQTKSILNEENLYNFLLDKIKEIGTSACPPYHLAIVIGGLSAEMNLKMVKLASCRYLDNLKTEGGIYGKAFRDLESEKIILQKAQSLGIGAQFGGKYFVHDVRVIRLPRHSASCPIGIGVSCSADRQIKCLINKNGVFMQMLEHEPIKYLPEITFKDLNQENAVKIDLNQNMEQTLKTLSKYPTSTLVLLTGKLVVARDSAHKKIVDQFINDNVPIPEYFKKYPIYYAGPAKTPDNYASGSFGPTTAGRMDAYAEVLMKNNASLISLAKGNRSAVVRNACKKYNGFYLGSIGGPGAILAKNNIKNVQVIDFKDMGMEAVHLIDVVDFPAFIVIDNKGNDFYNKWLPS
Description: spectrophotometric initial velocity, global fit to competitive model. The format is biochemical.

The target of data set [2] is T2, EcFumA (Escherichia coli, UniProt P0AC33).
T2 sequence (P0AC33 2-548): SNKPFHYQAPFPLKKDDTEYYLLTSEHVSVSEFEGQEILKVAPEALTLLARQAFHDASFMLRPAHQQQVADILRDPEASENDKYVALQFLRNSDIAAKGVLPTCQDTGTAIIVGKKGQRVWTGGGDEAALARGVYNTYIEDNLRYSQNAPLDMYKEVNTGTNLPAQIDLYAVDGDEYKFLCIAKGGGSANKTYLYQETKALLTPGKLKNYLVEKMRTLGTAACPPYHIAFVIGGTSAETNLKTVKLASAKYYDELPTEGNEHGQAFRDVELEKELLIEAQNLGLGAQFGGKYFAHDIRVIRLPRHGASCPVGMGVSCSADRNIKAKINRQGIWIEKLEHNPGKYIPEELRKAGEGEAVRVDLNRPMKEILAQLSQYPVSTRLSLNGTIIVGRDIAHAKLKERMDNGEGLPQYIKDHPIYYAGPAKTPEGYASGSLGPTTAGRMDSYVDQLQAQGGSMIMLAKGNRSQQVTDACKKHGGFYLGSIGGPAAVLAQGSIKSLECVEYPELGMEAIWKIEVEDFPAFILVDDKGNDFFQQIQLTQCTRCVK
Description: spectrophotometric initial velocity. The class given is biochemical.

Data set [3] addresses T1, PfFHΔ40 (PfFΔ40). Description: spectrophotometric initial velocity, Michaelis-Menten fit. The following applies: 50 mM Tris-HCl pH 8.5, 37 °C.
The target in data set [4] is T3, EcFumC (Escherichia coli, UniProt P05042).
T3 sequence (P05042 1-467): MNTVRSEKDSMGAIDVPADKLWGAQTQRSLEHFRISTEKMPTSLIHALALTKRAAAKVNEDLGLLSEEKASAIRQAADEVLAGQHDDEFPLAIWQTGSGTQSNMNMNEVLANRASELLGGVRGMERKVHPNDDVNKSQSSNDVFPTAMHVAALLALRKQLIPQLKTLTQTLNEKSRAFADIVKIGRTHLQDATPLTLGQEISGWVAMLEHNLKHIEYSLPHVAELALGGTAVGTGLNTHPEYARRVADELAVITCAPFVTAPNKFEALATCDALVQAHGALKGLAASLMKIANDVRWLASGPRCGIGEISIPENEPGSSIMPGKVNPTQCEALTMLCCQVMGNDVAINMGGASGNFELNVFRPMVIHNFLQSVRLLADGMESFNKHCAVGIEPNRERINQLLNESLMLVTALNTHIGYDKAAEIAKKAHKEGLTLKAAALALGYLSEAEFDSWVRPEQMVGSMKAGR
Description: spectrophotometric initial velocity. The format is biochemical.

Data set [5] addresses T1, PfFHΔ40 (PfFΔ40). Kind of data set: spectrophotometric initial velocity. The format is biochemical.
Substrate in data set [6]: O=C(O)C[C@H](O)C(=O)O
Description: purified protein. As to conditions: 50 mM Tris-HCl pH 8.5, 37 °C.

Substrate in data set [7]: C/C(=C\C(=O)O)C(=O)O
Description: purified protein. The following applies: 50 mM Tris-HCl pH 8.5, 37 °C.

For the molecule `O=C(O)CC(S)C(=O)O` (racemic) [DL-mercaptosuccinic acid], the inhibition constant Ki in data set [1] worked out at 0.548 ± 0.046 µM; in data set [2] it was 2.9 ± 0.22 µM.
As for `O=C(O)/C=C/C(=O)O` [fumarate], the Km in data set [3] is 2600 ± 300 µM.
Turning to `O=C(O)C(O)C(O)C(=O)O` (stereo not drawn) [meso-tartrate], the figures for the inhibition constant (Ki) in data set [2], in data set [4] and in data set [5] were 625 µM, 652 µM and 114 ± 17 µM, respectively.

B1: PfFHΔ40 (PfFΔ40) (Plasmodium falciparum 3D7) (protein)
chain: T1 sequence (Q8I2N6 41-681)
In the case of B1, the Km in data set [6] came to 1200 ± 100 µM; in data set [7], 3200 ± 300 µM.
